In one series the test system is E. faecium. Put plainly: microbe, parasite or virus in culture. In kind it is cell-based.
For series [1], the system named is P. aeruginosa. Put plainly: MIC, microdilution broth, P. aeruginosa. It counts as cell-based. The source says:
(§1) MRSA and P. aeruginosa isolates were from Cubist Pharmaceuticals (Lexington, MA). VRE isolates were from a previously published collection. E. coli strains were obtained either from ATCC or Professor Cari Vanderpool (UIUC). A. baumannii isolates were obtained from Dr John Quale[51].
(§2) Mueller Hinton (MH) broth was used.

The test system of series [2] is resistant strains of ATCC 29213. Kind of series: microbe, parasite or virus in culture. Conditions: Staphylococcus aureus. In kind it is cell-based, S. aureus.
The test system of series [3] is P. aeruginosa. Further details: method as in earlier work. Conditions: previously determined, cited from earlier work.
Series [4] relates to A. baumannii. Kind of series: MIC, microdilution broth, A. baumannii. In kind it is cell-based.
Source text: as §1, §2
On the technique in general: Dilution methods test growth across graded concentrations, often in twofold steps.

For another series, the system named is E. faecalis. Put plainly: microbe, parasite or virus in culture. In kind it is cell-based. Conditions: for MIC: Enterococcus faecalis, E. faecalis, gyrA WT, parC WT.
Series [5] relates to A. baumannii. Further details: method as in earlier work. The following applies: previously determined, cited from earlier work.
The test system of the next series is E. coli. Put plainly: microbe, parasite or virus in culture. It counts as cell-based.
Source text: as §1, §2

In series [6] the test system is K. pneuomoniae, S. aureus or Mycobacterium tuberculosis. Further details: method as in PMID 24545057. The following applies: cited from earlier work.
On the set-up of series [7]: method as in PMID 24545057. The following applies: dosed subcutaneously, orally or by intraperitoneal injection; cited from earlier work.
The test system of series [8] is FQR S. aureus (NRS3, FQR). Put plainly: MIC, microdilution broth assay, FQR MRSA NRS3. It counts as cell-based. Conditions: NRS3; S84L GyrA and S80F ParC; three independent replicates.
Series [9] is described as follows: Aqueous solubility determination. Conditions: PBS, pH 7.4.
Procedure: Three independent replicates of each compound were performed.
For series [10], the system named is WT S. aureus (ATCC 29213, WT). Put plainly: microbe, parasite or virus in culture. In kind it is cell-based. The following applies: WT GyrA and WT ParC, three independent replicates.
Another series concerns the target T1, human topoisomerase II (Homo sapiens, UniProt P11388).
T1 construct: purchased Inspiralis
Kind of series: Human topoisomerase decatenation assay. It counts as biochemical. The method, then: The decatenation assay was performed with the Human Topo II Decatenation Assay Kit (Inspiralis), according to the manufacturer's instructions, with minor modifications. First, a master mix was made containing 2 μl of 10 × assay buffer (500 mM Tris-HCl pH 7.5, 1250, mM NaCl, 100 mM MgCl2, 50 mM DTT, 1,000 μg ml^−1 albumin), 0.67 μl of 30 mM ATP, 1.34 μl of 0.1 ng μl^−1 kDNA, and 14.3 μl of nuclease-free water per sample is made. DMSO or 30 × compound is added to a 0.5-ml Eppendorf tube (0.67 μl per tube). The master mix is then added to each tube (18.3 μl per tube). Finally, 1 U of human topoisomerase (1 μl of 1 U μl^−1 stock) is added to each tube for a final volume of 20 μl. The tubes are then incubated at 37 °C for 30 min. Reactions are stopped by the addition of 20 μl of 24:1 chloroform:isoamyl alcohol and 20 μl of stop dye (40% sucrose, 1 mM EDTA, 100 mM Tris-HCl pH 7.5, 0.5 μg ml^−1 bromophenol blue). Samples were run on 1% agarose gels containing 0.5 μg ml^−1 ethidium bromide for 1 h at 110 V or until the dye front was approximately halfway down the gel. Gels were imaged on a Molecular Imager Gel Doc XR+ (Biorad).

Each structure is given as a SMILES string. In brackets after ≈: the same amount, converted by molar mass. Like-named read-outs stand apart in the source and are kept apart here.

T1 sequence (P11388 whole entry): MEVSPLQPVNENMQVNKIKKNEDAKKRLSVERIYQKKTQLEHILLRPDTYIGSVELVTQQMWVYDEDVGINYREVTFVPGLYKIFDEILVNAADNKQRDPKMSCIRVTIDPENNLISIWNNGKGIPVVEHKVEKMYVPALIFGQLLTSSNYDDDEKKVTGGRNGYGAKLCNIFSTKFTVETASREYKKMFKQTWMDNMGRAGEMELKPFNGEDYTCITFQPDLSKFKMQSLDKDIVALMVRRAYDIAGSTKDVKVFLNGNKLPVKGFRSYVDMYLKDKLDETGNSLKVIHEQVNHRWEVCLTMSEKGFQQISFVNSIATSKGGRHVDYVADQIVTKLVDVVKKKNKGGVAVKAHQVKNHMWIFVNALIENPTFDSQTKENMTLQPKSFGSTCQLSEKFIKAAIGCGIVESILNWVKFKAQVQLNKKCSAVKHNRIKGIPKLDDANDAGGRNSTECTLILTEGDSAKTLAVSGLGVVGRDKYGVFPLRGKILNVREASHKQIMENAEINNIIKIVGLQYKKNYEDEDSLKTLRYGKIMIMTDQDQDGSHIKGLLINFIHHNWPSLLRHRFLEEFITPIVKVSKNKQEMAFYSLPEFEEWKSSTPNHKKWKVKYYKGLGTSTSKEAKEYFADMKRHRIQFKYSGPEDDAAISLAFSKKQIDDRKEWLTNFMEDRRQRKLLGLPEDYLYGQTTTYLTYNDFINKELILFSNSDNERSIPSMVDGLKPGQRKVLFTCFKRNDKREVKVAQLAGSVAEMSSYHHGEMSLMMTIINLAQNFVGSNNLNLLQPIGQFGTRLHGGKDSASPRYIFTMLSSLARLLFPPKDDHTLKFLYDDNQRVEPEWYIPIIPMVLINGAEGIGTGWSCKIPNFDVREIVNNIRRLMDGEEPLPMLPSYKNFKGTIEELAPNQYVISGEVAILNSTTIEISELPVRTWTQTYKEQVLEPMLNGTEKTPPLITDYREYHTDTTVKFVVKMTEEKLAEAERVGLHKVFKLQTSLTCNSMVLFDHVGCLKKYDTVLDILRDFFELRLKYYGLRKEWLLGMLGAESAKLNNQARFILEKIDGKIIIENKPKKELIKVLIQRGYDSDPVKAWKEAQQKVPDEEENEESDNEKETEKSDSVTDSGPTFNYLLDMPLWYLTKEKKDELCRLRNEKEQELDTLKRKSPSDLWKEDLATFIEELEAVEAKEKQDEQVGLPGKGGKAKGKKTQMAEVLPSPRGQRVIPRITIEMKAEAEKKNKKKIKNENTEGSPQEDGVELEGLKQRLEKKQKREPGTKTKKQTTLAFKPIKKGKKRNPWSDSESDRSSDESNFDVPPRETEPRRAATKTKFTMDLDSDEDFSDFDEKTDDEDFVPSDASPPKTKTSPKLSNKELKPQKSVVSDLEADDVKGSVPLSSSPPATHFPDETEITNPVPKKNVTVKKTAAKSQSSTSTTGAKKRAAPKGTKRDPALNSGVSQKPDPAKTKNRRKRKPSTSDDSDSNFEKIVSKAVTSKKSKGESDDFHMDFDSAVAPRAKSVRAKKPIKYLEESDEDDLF

As for `O=C(O)c1cn(C2CC2)c2cc(N3CCNCC3)c(F)cc2c1=O` [CIP, ciprofloxacin, reference compound], the “CIP (S/I/R)” value in the series with E. faecium (strain C21190), in the series with E. faecium (strain C27282), in the series with E. faecium (strain C27569), in the series with E. faecium (strain D1), in the series with E. faecium (strain S34) and in the series with E. faecium (strain S51) was “R (resistant (R) with a MIC ≥ 16 µg mL-1)” each time. Further, the “CIP (S/I/R)” value with E. faecium (strain S122), in the series with E. faecium (strain S226), in the series with E. faecium (strain S235), in the series with E. faecium (strain S344), in the series with E. faecium (strain S557) and with E. faecium (strain SL152) was “R (resistant (R) with a MIC ≥ 16 µg mL-1)” each time. The “CIP (S/I/R)” value with E. faecium (strain U63) is “R (resistant (R) with a MIC ≥ 16 µg mL-1)”; in the series on E. faecium (strain U275), “R (resistant (R) with a MIC ≥ 16 µg mL-1)”; in the series with E. faecium (strain U464), “R (resistant (R) with a MIC ≥ 16 µg mL-1)”; with E. faecium (strain U503), “R (resistant (R) with a MIC ≥ 16 µg mL-1)”; in the series with E. faecium (strain U563) it was “R (resistant (R) with a MIC ≥ 16 µg mL-1)”; in the series on E. faecalis (strain ATCC 19433) it was “S (sensitive (S) if it had an MIC ≤ 4 µg mL-1)”. The “CIP (S/I/R)” value was “S (sensitive (S) if it had an MIC ≤ 4 µg mL-1)” in the series on E. faecalis (strain ATCC 29212); “R (resistant (R) with a MIC ≥ 16 µg mL-1)” in the series with E. faecalis (strain C21667); “R (resistant (R) with a MIC ≥ 16 µg mL-1)” with E. faecalis (strain C28535); “R (resistant (R) with a MIC ≥ 16 µg mL-1)” with E. faecalis (strain S206); “R (resistant (R) with a MIC ≥ 16 µg mL-1)” in the series on E. faecalis (strain S234). Moreover, the “CIP (S/R)” value was “S” in the series with P. aeruginosa [1]; “R” in the series on P. aeruginosa [3] (PA1000); “R” in the series with P. aeruginosa [3] (PA1586); “S” in the series on A. baumannii [4]; “R” with A. baumannii [5] (A. baumannii KB304); “R” in the series on A. baumannii [5] (A. baumannii KB349). Besides, the “CIP (S/R)” value with E. coli is reported as “S”. For the same molecule, the MIC in [2] (ATCC29213, high-level CIP-resistant strains, second step, S84L mutation in GyrA) was 16 to 64 µg/mL (≈ 48.3 to 193 µM); in series [2] (ATCC29213, low-level CIP-resistant strains, first step, WT gyrA, mutation in ParC (for example E84K or S80F)) it was 4 to 8 µg/mL (≈ 12.1 to 24.1 µM); against E. faecalis (ATCC19433, ATCC 19433), 2 µg/mL (≈ 6.04 µM); against E. faecalis (ATCC29212, ATCC 29212) it was 0.5 to 2 µg/mL (≈ 1.51 to 6.04 µM). For the same molecule, the results for the “CIP MIC” value with A. baumannii [5] (A. baumannii KB304) and in the series with A. baumannii [5] (A. baumannii KB349) were 24 µg/mL and over 32 µg/mL, respectively.

For the molecule `Cc1cc(=O)n2c3c(c4c(cc13)c(CO)cc(=O)n4C)OC2` [NM, Nybomycin], the “activity in mice infected with various bacteria” value in series [6] is reported as “no activity”. Besides, in series [7], the tolerability in mice entry is “well tolerated”.

For the molecule `CCCc1cc(=O)n(C)c2c3c4c(cc12)c(CCC)cc(=O)n4CO3` [compound 14], the “MIC against S. aureus NRS3” value in series [8] turned out to be 32 µg/mL (≈ 94.6 µM). Also, the solubility at 1 h in [9] is under 1 µM. Moreover, in series [10] (ATCC 29213), the “MIC against S. aureus 29213” value is over 32 µg/mL. In addition, the MIC in [10] (Staphylococcus aureus, ATCC29213, ATCC 29213, read-out: MIC against S. aureus 29213) is over 32 µg/mL.

For `COc1cccc2c1C(=O)c1c(O)c3c(c(O)c1C2=O)C[C@@](O)(C(=O)CO)C[C@@H]3O[C@H]1C[C@H](N)[C@H](O)[C@H](C)O1` [doxorubicin, reference compound], the “concentration inhibiting human topoisomerase II” value at human topoisomerase II was 3 µM.

In general, solubility refers to how much of the substance goes into solution per volume. A high value points to a readily soluble substance.

(Values after paper PMC4421842 (Nature Communications, 2015).)
